Assay [1] has as its target Protease (Human immunodeficiency virus 1) (UniProt Q9YQ12). Briefly: Inhibition of HIV1 protease at 50 nM.
Assay [2] deals with Gag-Pro polyprotein (Human T-cell leukemia virus 1 (strain Japan ATK-1 subtype A) (HTLV-1), UniProt P10274, L40I). Briefly: Inhibition of HTLV1 protease L40I mutant expressed in Escherichia coli BL21(DE3)pLysS. Further details: species or system Human T-cell leukemia virus type I.

Drawing on ChEMBL document CHEMBL1141611, “Truncation and non-natural amino acid substitution studies on HTLV-I protease hexapeptidic inhibitors” (Bioorg Med Chem Lett, 2008), this text covers inhibition and IC50 for 28 compounds.

*1 amine or outer side, *2 acyl side, *3 side chain or, on linkers, in order; H or OH if unused. Where a SMILES comes first, the peptide text is derived from it. [ ]: non-standard residue; d: D form. X1 = O=C([C@@H](O)[C@H](Cc1ccccc1)N[*:1])[*:2]; Thz(5,5-Me2) = CC1(C)SCN[C@@H]1C(=O)O

Sequence of Protease (Human immunodeficiency virus 1) (Q9YQ12 as listed by the source): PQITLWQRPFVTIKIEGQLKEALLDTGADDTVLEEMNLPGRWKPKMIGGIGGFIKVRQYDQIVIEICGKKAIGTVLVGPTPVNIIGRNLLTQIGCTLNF
Sequence of Gag-Pro polyprotein (P10274 450-574 L489I): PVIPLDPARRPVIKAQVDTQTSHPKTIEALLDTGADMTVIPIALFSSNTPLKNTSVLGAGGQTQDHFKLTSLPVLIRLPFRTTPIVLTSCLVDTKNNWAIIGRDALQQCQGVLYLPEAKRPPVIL

On to `CSCC[C@H](NC(=O)[C@@H](NC(=O)[C@H]1N(C(=O)[C@@H](O)[C@H](Cc2ccccc2)NC(=O)[C@@H](NC(=O)[C@H](CCC(N)=O)NC(C)=O)C(C)C)CSC1(C)C)C(C)C)C(N)=O` (Ac-QV[X1][Thz(5,5-Me2)]VM-NH2), for which the inhibition – broadly, the change of the read-out against control, counted positive when it falls – in assay [1] turned out to be 96%. Also, the IC50 (commonly the concentration at which inhibition is half-maximal) in assay [2] amounted to 353 nM.

As for `CSCC[C@H](NC(=O)[C@@H](NC(=O)[C@H]1N(C(=O)[C@@H](O)[C@H](Cc2ccccc2)NC(=O)[C@@H](NC(=O)[C@H](CCC(N)=O)NC(=O)[C@@H]2CCCN2)C(C)C)CSC1(C)C)C(C)C)C(=O)N[C@@H](Cc1c[nH]cn1)C(=O)O` (H-PQV[X1][Thz(5,5-Me2)]VMH-OH), the inhibition in assay [1] worked out at 58%.

`CC[C@H](C)[C@H](NC(C)=O)C(=O)N[C@H](C(=O)N[C@@H](Cc1ccccc1)[C@H](O)C(=O)N1CSC(C)(C)[C@@H]1C(=O)N[C@H](C(=O)N[C@@H](CCSC)C(N)=O)[C@@H](C)CC)[C@@H](C)CC` returned an inhibition in assay [1] of 98%. In assay [2], this compound showed an IC50 of 88 nM.

As for `CC(=O)N[C@H](C(=O)N[C@H](C(=O)N[C@@H](Cc1ccccc1)[C@H](O)C(=O)N1CSC(C)(C)C1C(=O)NCC(C)(C)C)C(C)(C)C)c1ccccc1` (some centres undefined), in assay [1], the inhibition was 99%. This compound returned an IC50 in assay [2] of 113 nM.

`CC[C@H](C)[C@H](NC(C)=O)C(=O)N[C@@H](Cc1ccccc1)[C@H](O)C(=O)N1CSC(C)(C)[C@@H]1C(=O)N[C@H](C(=O)N[C@@H](CCSC)C(N)=O)[C@@H](C)CC`: the inhibition in assay [1] is 89%. Besides, the IC50 in assay [2] was more than 1000 nM.

In assay [1], `CSCC[C@H](NC(=O)[C@@H](NC(=O)[C@@H]1CCCN1C(=O)[C@@H](O)[C@H](Cc1ccccc1)NC(=O)[C@@H](NC(=O)[C@H](CCC(N)=O)NC(=O)[C@@H]1CCCN1)C(C)C)C(C)C)C(=O)N[C@@H](Cc1cnc[nH]1)C(=O)O` (H-PQV[X1]PVMH-OH) came in with an inhibition of less than 30%. Also, the IC50 in assay [2] is 159 nM.

As to `CC[C@H](C)[C@H](NC(C)=O)C(=O)N[C@H](C(=O)N[C@@H](Cc1ccccc1)[C@H](O)C(=O)N1CSC(C)(C)[C@@H]1C(=O)N[C@H](C(=O)N[C@@H](CCSC)C(N)=O)[C@@H](C)CC)c1ccccc1`, the inhibition in assay [1] was 88%. In assay [2], this compound displayed an IC50 of 320 nM.

Compound `CC[C@H](C)[C@H](NC(=O)[C@@H]1N(C(=O)[C@@H](O)[C@H](Cc2ccccc2)NC(=O)[C@@H](NC(=O)[C@@H](NC(C)=O)c2ccccc2)C(C)(C)C)CSC1(C)C)C(N)=O` registered an inhibition in assay [1] of 93%. The same compound returned a half-maximal inhibitory concentration (IC50) in assay [2] of 144 nM.

As for `CC(=O)N[C@H](C(=O)N[C@H](C(=O)N[C@@H](Cc1ccccc1)[C@H](O)C(=O)N1CSC(C)(C)C1C(=O)NCC(C)C)C(C)(C)C)c1ccccc1` (some centres undefined), the inhibition in assay [1] was more than 99%. In addition, in assay [2], the IC50 came out at 107 nM.

`C=C(C)CNC(=O)C1N(C(=O)[C@@H](O)[C@H](Cc2ccccc2)NC(=O)[C@@H](NC(=O)[C@@H](NC(C)=O)c2ccccc2)C(C)(C)C)CSC1(C)C` (some centres undefined) had an inhibition in assay [1] of more than 99%. In assay [2], this compound showed a 50% inhibitory concentration (IC50) of 140 nM.

`CC[C@H](C)[C@H](NC(C)=O)C(=O)N[C@H](C(=O)N[C@@H](Cc1ccccc1)[C@H](O)C(=O)N1CSC(C)(C)[C@@H]1C(=O)N[C@H](C(=O)N[C@@H](CCSC)C(N)=O)c1ccccc1)[C@@H](C)CC` gave an inhibition in assay [1] of 86%. Besides, the IC50 in assay [2] was determined as 123 nM.

As for `CC(=O)N[C@H](C(=O)N[C@H](C(=O)N[C@@H](Cc1ccccc1)[C@H](O)C(=O)N1CSC(C)(C)C1C(=O)NCc1ccccc1C)C(C)(C)C)c1ccccc1` (some centres undefined), the inhibition in assay [1] came out at 99%. Further, the IC50 in assay [2] was found to be 103 nM.

In turn, `CC[C@H](C)[C@H](NC(C)=O)C(=O)N[C@H](C(=O)N[C@@H](Cc1ccccc1)[C@H](O)C(=O)N1CSC(C)(C)[C@@H]1C(=O)N[C@H](C(=O)N[C@@H](CCC(N)=O)C(N)=O)[C@@H](C)CC)[C@@H](C)CC` returned an inhibition in assay [1] of 93%. In assay [2], this compound showed an IC50 of 159 nM.

Turning to `CC[C@H](C)[C@H](NC(C)=O)C(=O)N[C@H](C(=O)N[C@@H](Cc1ccccc1)[C@H](O)C(=O)N1CSC(C)(C)[C@@H]1C(=O)N[C@H](C(=O)N[C@@H](Cc1ccccc1)C(N)=O)[C@@H](C)CC)[C@@H](C)CC`, the inhibition in assay [1] was found to be 98%. Moreover, the IC50 in assay [2] is 95 nM.

`CC[C@H](C)[C@H](NC(=O)[C@@H]1N(C(=O)[C@@H](O)[C@H](Cc2ccccc2)NC(=O)[C@@H](NC(=O)[C@@H](NC(C)=O)c2ccccc2)C(C)(C)C)CSC1(C)C)C(=O)N[C@@H](CCC(N)=O)C(N)=O` registered an inhibition in assay [1] of 98%. In assay [2], this compound returned an IC50 of 84 nM.

Take `CC(=O)N[C@H](C(=O)N[C@H](C(=O)N[C@@H](Cc1ccccc1)[C@H](O)C(=O)N1CSC(C)(C)C1C(=O)NCC1CC1)C(C)(C)C)c1ccccc1` (some centres undefined): in assay [1], the inhibition worked out at 99%. The midpoint of inhibition in assay [2], the IC50, lay at 146 nM.

In turn, `CCCNC(=O)C1N(C(=O)[C@@H](O)[C@H](Cc2ccccc2)NC(=O)[C@@H](NC(=O)[C@@H](NC(C)=O)c2ccccc2)C(C)(C)C)CSC1(C)C` (some centres undefined) yielded an inhibition in assay [1] of 98%. Moreover, the half-inhibitory concentration (IC50) in assay [2] worked out at 193 nM.

As to `C=CCNC(=O)C1N(C(=O)[C@@H](O)[C@H](Cc2ccccc2)NC(=O)[C@@H](NC(=O)[C@@H](NC(C)=O)c2ccccc2)C(C)(C)C)CSC1(C)C` (some centres undefined), the inhibition in assay [1] is more than 99%. The compound also displayed an IC50 in assay [2] of 131 nM.

In the case of `CC[C@H](C)[C@H](NC(=O)[C@@H]1N(C(=O)[C@@H](O)[C@H](Cc2ccccc2)NC(=O)[C@@H](NC(=O)[C@@H](NC(C)=O)[C@@H](C)CC)[C@@H](C)CC)CSC1(C)C)C(N)=O`, the inhibition in assay [1] is 57%. This compound yielded an IC50 in assay [2] of 249 nM.

In turn, `CC[C@H](C)[C@H](NC(C)=O)C(=O)N[C@H](C(=O)N[C@@H](Cc1ccccc1)[C@H](O)C(=O)N1CSC(C)(C)[C@@H]1C(=O)N[C@H](C(=O)N[C@@H](CCSC)C(N)=O)C(C)(C)C)[C@@H](C)CC` yielded an inhibition in assay [1] of 79%. In assay [2], this compound yielded an IC50 of 180 nM.

`CC[C@H](C)[C@H](NC(C)=O)C(=O)N[C@H](C(=O)N[C@@H](Cc1ccccc1)[C@H](O)C(=O)N1CSC(C)(C)[C@@H]1C(=O)N[C@H](C(=O)N[C@@H](CCSC)C(N)=O)[C@@H](C)CC)C(C)(C)C` registered an inhibition in assay [1] of 97%. Besides, the IC50 in assay [2] worked out at 145 nM.

For the compound `CC[C@H](C)[C@H](NC(=O)[C@@H](NC(C)=O)C(C)(C)C)C(=O)N[C@@H](Cc1ccccc1)[C@H](O)C(=O)N1CSC(C)(C)[C@@H]1C(=O)N[C@H](C(=O)N[C@@H](CCSC)C(N)=O)[C@@H](C)CC`, the inhibition in assay [1] was determined as 98%. For the same compound, the 50% inhibitory concentration (IC50) in assay [2] came out at 201 nM.

`CC[C@H](C)[C@H](NC(=O)[C@@H](NC(C)=O)c1ccccc1)C(=O)N[C@@H](Cc1ccccc1)[C@H](O)C(=O)N1CSC(C)(C)[C@@H]1C(=O)N[C@H](C(=O)N[C@@H](CCSC)C(N)=O)[C@@H](C)CC` returned an inhibition in assay [1] of 98%. This compound showed an IC50 in assay [2] of 102 nM.

Take `CC[C@H](C)[C@H](NC(=O)[C@@H]1N(C(=O)[C@@H](O)[C@H](Cc2ccccc2)NC(=O)[C@@H](NC(=O)[C@@H](NC(C)=O)c2ccccc2)C(C)(C)C)CSC1(C)C)C(=O)N[C@@H](CCSC)C(N)=O`: the inhibition in assay [1] was determined as 99%. In assay [2], this compound returned an IC50 of 101 nM.

In assay [1], `CC(=O)N[C@H](C(=O)N[C@H](C(=O)N[C@@H](Cc1ccccc1)[C@H](O)C(=O)N1CSC(C)(C)C1C(=O)NCc1cccc(I)c1)C(C)(C)C)c1ccccc1` (some centres undefined) returned an inhibition of 97%. The compound further registered an IC50 in assay [2] of 473 nM.

The compound `CSCC[C@H](NC(=O)[C@@H](NC(=O)[C@H]1N(C(=O)[C@@H](O)[C@H](Cc2ccccc2)NC(=O)[C@@H](NC(=O)[C@H](CCC(N)=O)NC(=O)[C@@H]2CCCN2)C(C)C)CSC1(C)C)C(C)C)C(=O)N[C@@H](Cc1cnc[nH]1)C(=O)O` (H-PQV[X1][Thz(5,5-Me2)]VMH-OH) registered an IC50 in assay [2] of 152 nM.

The compound `CC[C@H](C)[C@H](NC(C)=O)C(=O)N[C@H](C(=O)N[C@@H](Cc1ccccc1)[C@H](O)C(=O)N1CSC(C)(C)[C@@H]1C(=O)N[C@H](C(=O)N[C@@H](C)C(N)=O)[C@@H](C)CC)[C@@H](C)CC` registered an inhibition in assay [1] of 82%. Further, half-maximal inhibition in assay [2] (IC50) was put at 160 nM.

As to `CC[C@H](C)[C@H](NC(C)=O)C(=O)N[C@H](C(=O)N[C@H](Cc1ccccc1)[C@H](O)C(=O)N1CSC(C)(C)[C@@H]1C(=O)N[C@H](C(=O)N[C@@H](CCSC)C(N)=O)[C@@H](C)CC)[C@@H](C)CC`, the inhibition in assay [1] is 73%. Moreover, in assay [2], 180 nM corresponded to half-maximal inhibition (IC50).
